Data from PubChem BioAssay (NCI).
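Where inhibition never reached the appropriate level, the endpoint shown equals the highest concentration tested. Otherwise, values were interpolated linearly from a five-concentration, 48-hour dose response in 96-well plates. At the GI50, growth is halved. TGI: total growth inhibition.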

Columns and labels:
Test in all cases: inhibition of tumour cell growth, NCI panel, 48 h
UACC-257 melanoma = tested on: UACC-257 melanoma
HS 578T breast = tested on: HS 578T breast
NCI-H460 lung = tested on: NCI-H460 lung
A549 NSCLC = tested on: A549 NSCLC
NCI/ADR-RES ovarian = tested on: NCI/ADR-RES ovarian
MDA-MB-435 = tested on: MDA-MB-435
EKVX NSCLC = tested on: EKVX NSCLC
HL-60(TB) leukemia = tested on: HL-60(TB) leukemia
SK-OV-3 ovarian = tested on: SK-OV-3 ovarian
CAKI-1 renal = tested on: CAKI-1 renal
MALME-3M melanoma = tested on: MALME-3M melanoma
PC-3 prostate = tested on: PC-3 prostate
HCC-2998 colon = tested on: HCC-2998 colon
RXF 393 renal = tested on: RXF 393 renal
SNB-75 CNS = tested on: SNB-75 CNS
MCF7 breast = tested on: MCF7 breast
ACHN renal = tested on: ACHN renal
NCI-H522 lung = tested on: NCI-H522 lung
LOX IMVI melanoma = tested on: LOX IMVI melanoma
NCI-H23 lung = tested on: NCI-H23 lung
M14 melanoma = tested on: M14 melanoma
OVCAR-4 ovarian = tested on: OVCAR-4 ovarian
MDA-MB-231 breast = tested on: MDA-MB-231 breast
SK-MEL-5 melanoma = tested on: SK-MEL-5 melanoma
SN12C renal = tested on: SN12C renal
T-47D breast = tested on: T-47D breast
SF-539 CNS = tested on: SF-539 CNS
SF-268 CNS = tested on: SF-268 CNS
K-562 leukemia = tested on: K-562 leukemia
OVCAR-5 ovarian = tested on: OVCAR-5 ovarian
786-0 renal = tested on: 786-0 renal
SW-620 colon = tested on: SW-620 colon
DU-145 prostate = tested on: DU-145 prostate
BT-549 breast = tested on: BT-549 breast
CCRF-CEM leukemia = tested on: CCRF-CEM leukemia
OVCAR-8 ovarian = tested on: OVCAR-8 ovarian
HOP-92 NSCLC = tested on: HOP-92 NSCLC
MOLT-4 leukemia = tested on: MOLT-4 leukemia
HT29 colon = tested on: HT29 colon
HCT-15 colon = tested on: HCT-15 colon
IGROV1 ovarian = tested on: IGROV1 ovarian
UO-31 renal = tested on: UO-31 renal
OVCAR-3 ovarian = tested on: OVCAR-3 ovarian
SK-MEL-2 melanoma = tested on: SK-MEL-2 melanoma
RPMI-8226 leukemia = tested on: RPMI-8226 leukemia
NCI-H226 lung = tested on: NCI-H226 lung
SF-295 CNS = tested on: SF-295 CNS
HOP-62 NSCLC = tested on: HOP-62 NSCLC
U251 CNS = tested on: U251 CNS
SK-MEL-28 melanoma = tested on: SK-MEL-28 melanoma
SR leukemia = tested on: SR leukemia
TK-10 renal = tested on: TK-10 renal
SNB-19 CNS = tested on: SNB-19 CNS
COLO 205 colon = tested on: COLO 205 colon
HCT-116 colon = tested on: HCT-116 colon
MDA-MB-468 breast = tested on: MDA-MB-468 breast
UACC-62 melanoma = tested on: UACC-62 melanoma
KM12 colon = tested on: KM12 colon

SMILES: COc1cc(NC(=O)c2cccc(C3CCc4c(cc(OC)c(OC)c4OC)O3)c2)cc(OC)c1OC (stereo not given)
- GI50 (UACC-257 melanoma): 3.89 µM
- TGI (UACC-257 melanoma): > 100 µM
- GI50 (HS 578T breast): 2.04 µM
- TGI (HS 578T breast): 6.74 µM
- GI50 (NCI-H460 lung): 3.24 µM
- TGI (NCI-H460 lung): > 100 µM
- GI50 (A549 NSCLC): 3.91 µM
- TGI (A549 NSCLC): > 100 µM
- GI50 (NCI/ADR-RES ovarian): 2.1 µM
- TGI (NCI/ADR-RES ovarian): 6.91 µM
- GI50 (MDA-MB-435): 0.497 µM
- TGI (MDA-MB-435): 3.33 µM
- GI50 (EKVX NSCLC): 6.37 µM
- TGI (EKVX NSCLC): > 100 µM
- GI50 (HL-60(TB) leukemia): 2.04 µM
- TGI (HL-60(TB) leukemia): 5.79 µM
- GI50 (SK-OV-3 ovarian): 3.65 µM
- TGI (SK-OV-3 ovarian): > 100 µM
- GI50 (CAKI-1 renal): 2.37 µM
- TGI (CAKI-1 renal): > 100 µM
- GI50 (MALME-3M melanoma): 2.45 µM
- TGI (MALME-3M melanoma): > 100 µM
- GI50 (PC-3 prostate): 2.66 µM
- TGI (PC-3 prostate): > 100 µM
- GI50 (HCC-2998 colon): 7.64 µM
- TGI (HCC-2998 colon): > 100 µM
- GI50 (RXF 393 renal): 1.59 µM
- TGI (RXF 393 renal): 8.46 µM
- GI50 (SNB-75 CNS): 2.33 µM
- TGI (SNB-75 CNS): 7.99 µM
- GI50 (MCF7 breast): 2.29 µM
- TGI (MCF7 breast): > 100 µM
- GI50 (ACHN renal): 3.77 µM
- TGI (ACHN renal): > 100 µM
- GI50 (NCI-H522 lung): 1.56 µM
- TGI (NCI-H522 lung): 4.63 µM
- GI50 (LOX IMVI melanoma): 3.62 µM
- TGI (LOX IMVI melanoma): > 100 µM
- GI50 (NCI-H23 lung): 4.37 µM
- TGI (NCI-H23 lung): > 100 µM
- GI50 (M14 melanoma): 2.53 µM
- TGI (M14 melanoma): 71 µM
- GI50 (OVCAR-4 ovarian): 4.49 µM
- TGI (OVCAR-4 ovarian): > 100 µM
- GI50 (MDA-MB-231 breast): 4.12 µM
- TGI (MDA-MB-231 breast): > 100 µM
- GI50 (SK-MEL-5 melanoma): 1.58 µM
- TGI (SK-MEL-5 melanoma): 4.52 µM
- GI50 (SN12C renal): 3.47 µM
- TGI (SN12C renal): > 100 µM
- GI50 (T-47D breast): 2.5 µM
- TGI (T-47D breast): 9.29 µM
- GI50 (SF-539 CNS): 2.13 µM
- TGI (SF-539 CNS): 5.81 µM
- GI50 (SF-268 CNS): 3.78 µM
- TGI (SF-268 CNS): > 100 µM
- GI50 (K-562 leukemia): 1.75 µM
- TGI (K-562 leukemia): > 100 µM
- GI50 (OVCAR-5 ovarian): 5.01 µM
- TGI (OVCAR-5 ovarian): > 100 µM
- GI50 (786-0 renal): 4.23 µM
- TGI (786-0 renal): > 100 µM
- GI50 (SW-620 colon): 3.52 µM
- TGI (SW-620 colon): > 100 µM
- GI50 (DU-145 prostate): 3.83 µM
- TGI (DU-145 prostate): > 100 µM
- GI50 (BT-549 breast): 1.99 µM
- TGI (BT-549 breast): 8.22 µM
- GI50 (CCRF-CEM leukemia): 2.75 µM
- TGI (CCRF-CEM leukemia): > 100 µM
- GI50 (OVCAR-8 ovarian): 3.2 µM
- TGI (OVCAR-8 ovarian): > 100 µM
- GI50 (HOP-92 NSCLC): 3.96 µM
- TGI (HOP-92 NSCLC): > 100 µM
- GI50 (MOLT-4 leukemia): 2.86 µM
- TGI (MOLT-4 leukemia): 27.5 µM
- GI50 (HT29 colon): 2.46 µM
- TGI (HT29 colon): 6.07 µM
- GI50 (HCT-15 colon): 2.7 µM
- TGI (HCT-15 colon): > 100 µM
- GI50 (IGROV1 ovarian): 4.15 µM
- TGI (IGROV1 ovarian): > 100 µM
- GI50 (UO-31 renal): 2.59 µM
- TGI (UO-31 renal): 19.2 µM
- GI50 (OVCAR-3 ovarian): 3.42 µM
- TGI (OVCAR-3 ovarian): > 100 µM
- GI50 (SK-MEL-2 melanoma): 2.66 µM
- TGI (SK-MEL-2 melanoma): > 100 µM
- GI50 (RPMI-8226 leukemia): 1.95 µM
- TGI (RPMI-8226 leukemia): 12.7 µM
- GI50 (NCI-H226 lung): 2.55 µM
- GI50 (SF-295 CNS): 2.46 µM
- TGI (SF-295 CNS): > 100 µM
- GI50 (HOP-62 NSCLC): 3.51 µM
- TGI (HOP-62 NSCLC): > 100 µM
- GI50 (U251 CNS): 3.6 µM
- TGI (U251 CNS): > 100 µM
- GI50 (SK-MEL-28 melanoma): 4.64 µM
- TGI (SK-MEL-28 melanoma): > 100 µM
- GI50 (SR leukemia): 0.925 µM
- TGI (SR leukemia): 84.9 µM
- GI50 (TK-10 renal): 4.32 µM
- TGI (TK-10 renal): > 100 µM
- GI50 (SNB-19 CNS): 5.94 µM
- TGI (SNB-19 CNS): > 100 µM
- GI50 (COLO 205 colon): 2 µM
- TGI (COLO 205 colon): 5.31 µM
- GI50 (HCT-116 colon): 3.69 µM
- TGI (HCT-116 colon): > 100 µM
- GI50 (MDA-MB-468 breast): 1.24 µM
- TGI (MDA-MB-468 breast): 4.41 µM
- GI50 (UACC-62 melanoma): 1.74 µM
- TGI (UACC-62 melanoma): 8.33 µM
- GI50 (KM12 colon): 3.1 µM
- TGI (KM12 colon): > 100 µM
